Measured values published in patent US10081641B2, “Pesticidally active heterocyclic derivatives with sulphur containing substituents” (Syngenta Participations AG, priority 2014, dated 2018).
Like-named read-outs stand apart in the source and are kept apart here.

Experiments:
Format in all cases: in vivo
[1] = tested on: Spodoptera littoralis (Egyptian Cotton Leaf Worm); experiment: Example B1: Spodoptera littoralis, sprayed cotton leaf discs; conditions: foliar, 72 h, read-out: control (at least one of mortality, anti-feedant effect, growth inhibition)
Experimental: Example B1: Spodoptera littoralis (Egyptian Cotton Leaf Worm)
Cotton leaf discs were placed on agar in 24-well microtiter plates and sprayed with aqueous test solutions prepared from 10′000 ppm DMSO stock solutions. After drying, the leaf discs were infested with five L1 larvae. The samples were assessed for mortality, anti-feedant effect, and growth inhibition in comparison to untreated samples 3 days after infestation. Control of Spodoptera littoralis by a test sample is when at least one of mortality, anti-feedant effect, and growth inhibition is higher than the untreated sample.

[2] = tested on: Plutella xylostella (Diamond Back Moth); experiment: Example B3: Plutella xylostella, artificial diet; conditions: 120 h, read-out: effect in at least one of the two categories (mortality or growth inhibition)
Experimental: Example B3: Plutella xylostella (Diamond Back Moth)
(§1) 24-well microtiter plates with artificial diet were treated with aqueous test solutions prepared from 10′000 ppm DMSO stock solutions by pipetting. After drying, the plates were infested with L2 larvae (10 to 15 per well). The samples were assessed for mortality and growth inhibition in comparison to untreated samples 5 days after infestation.

[3] = tested on: Myzus persicae (Green Peach Aphid); experiment: Example B6: Myzus persicae, roots of pea seedlings in test solution; conditions: 144 h, test rate of 24 ppm, pea seedling roots in test solution, 6 days
Experimental: Example B6: Myzus persicae (Green Peach Aphid)
Roots of pea seedlings infested with an aphid population of mixed ages were placed directly in the aqueous test solutions prepared from 10′000 DMSO stock solutions. The samples were assessed for mortality 6 days after placing seedlings in test solutions.

[4] = tested on: Diabrotica Balteata (Corn Root Worm); experiment: Example B4: Diabrotica balteata, sprayed maize sprouts; conditions: 96 h, application rate of 200 ppm, L2 larvae, 4 days after infestation, read-out: effect in at least one of the two categories (mortality or growth inhibition)
Experimental: Example B4: Diabrotica Balteata (Corn Root Worm)
as §1, with “Maize sprouts, placed on an agar layer in 24-well” for “24-well”, “plates” for “plates with artificial diet”, “spraying.” for “pipetting.”, “(6” for “(10”, “10” for “15”, “4” for “5”

[5] = tested on: Myzus persicae (Green Peach Aphid); experiment: Example B5: Myzus persicae, sprayed sunflower leaf discs; conditions: foliar, 144 h, application rate of 200 ppm, mixed ages, 6 days after infestation
Experimental: Example B5: Myzus persicae (Green Peach Aphid)
(§2) Sunflower leaf discs were placed on agar in a 24-well microtiter plate and sprayed with aqueous test solutions prepared from 10′000 ppm DMSO stock solutions. After drying, the leaf discs were infested with an aphid population of mixed ages. The samples were assessed for mortality 6 days after infestation.

[6] = tested on: Bemisia tabaci (Cotton White Fly); experiment: Example B7: Bemisia tabaci, sprayed cotton leaf discs; conditions: foliar, 144 h, application rate of 200 ppm, adult white flies, 6 days after incubation
Experimental: Example B7: Bemisia tabaci (Cotton White Fly)
Cotton leaf discs were placed on agar in 24-well microtiter plates and sprayed with aqueous test solutions prepared from 10′000 ppm DMSO stock solutions. After drying the leaf discs were infested with adult white flies. The samples were checked for mortality 6 days after incubation.

[7] = tested on: Euschistus heros (Neotropical Brown Stink Bug); experiment: Example B8: Euschistus heros, sprayed soybean leaf; conditions: 120 h, application rate of 200 ppm, N-2 nymphs, 5 days after infestation
Experimental: Example B8: Euschistus heros (Neotropical Brown Stink Bug)
Soybean leaf on agar in 24-well microtiter plates were sprayed with aqueous test solutions prepared from 10′000 ppm DMSO stock solutions. After drying the leaf were infested with N-2 nymphs. The samples were assessed for mortality 5 days after infestation.

[8] = tested on: Spodoptera littoralis (Egyptian Cotton Leaf Worm); experiment: Example B2: Spodoptera littoralis, systemic test via lettuce roots in agar; conditions: 144 h, test rate of 12.5 ppm, uptake via lettuce roots, 6 days after infestation, read-out: effect in at least one of the three categories (mortality, anti-feedancy, or growth inhibition)
Text: Example B2: Spodoptera littoralis (Egyptian Cotton Leaf Worm)
Test compounds were applied by pipette from 10′000 ppm DMSO stock solutions into 24-well plates and mixed with agar. Lettuce seeds were placed on the agar and the multi well plate was closed by another plate which contains also agar. After 7 days the roots have absorbed the compound and the lettuce has grown into the lid plate. The lettuce leafs were now cut off into the lid plate. Spodoptera eggs were pipetted through a plastic stencil on a humid gel blotting paper and the plate closed with it. The samples were assessed for mortality, anti-feedant effect and growth inhibition in comparison to untreated samples 6 days after infestation.

[9] = tested on: Tetranychus urticae (Two-Spotted Spider Mite); experiment: Example B10: Tetranychus urticae, sprayed bean leaf discs; conditions: foliar, 192 h
Experimental: Example B10: Tetranychus urticae (Two-Spotted Spider Mite)
Bean leaf discs on agar in 24-well microtiter plates were sprayed with aqueous test solutions prepared from 10′000 ppm DMSO stock solutions. After drying the leaf discs were infested with a mite population of mixed ages. The samples were assessed for mortality on mixed population (mobile stages) 8 days after infestation.

[10] = tested on: Frankliniella occidentalis (Western Flower Thrips); experiment: Example B12: Frankliniella occidentalis, sprayed sunflower leaf discs; conditions: foliar, 168 h, application rate of 200 ppm, mixed ages, 7 days after infestation
Experimental: Example B12: Frankliniella occidentalis (Western Flower Thrips)
as §2, with “in” for “in a”, “plates” for “plate”, “[…]” for “10′000 ppm”, “drying” for “drying,”, “a Frankliniella” for “an aphid”, “7” for “6”

[11] = tested on: Thrips tabaci (Onion Thrips); experiment: Example B11: Thrips tabaci, sprayed sunflower leaf discs; conditions: foliar, 144 h, application rate of 200 ppm, mixed ages, 6 days after infestation
Experimental: Example B11: Thrips tabaci (Onion Thrips)
as §2, with “in” for “in a”, “plates” for “plate”, “drying” for “drying,”, “a thrips” for “an aphid”

[12] = application rate of 200 ppm, cotton leaf discs, L1 larvae, 3 days after infestation
[13] = application rate of 200 ppm, artificial diet, L2 larvae, 5 days after infestation

CCS(=O)(=O)c1cc(C#C[Si](C)(C)C)cnc1-c1nc2cc(C(F)(F)F)ncc2n1C [P1, 2-[5-ethylsulfonyl-6-[3-methyl-6-(trifluoromethyl)imidazo[4,5-c]pyridin-2-yl]-3-pyridyl]ethynyl-trimethyl-silane]
≥ 80%: percent control (mortality, anti-feedant effect or growth inhibition) at 200 ppm [1] | percent effect (mortality or growth inhibition) at 200 ppm [2]

C#Cc1cnc(-c2nc3cc(C(F)(F)F)ncc3n2C)c(S(=O)(=O)CC)c1 [P2, 2-(3-ethylsulfonyl-5-ethynyl-2-pyridyl)-3-methyl-6-(trifluoromethyl)imidazo[4,5-c]pyridine]
≥ 80%: percent control (mortality, anti-feedant effect or growth inhibition) at 200 ppm [1, 12] | percent effect (mortality or growth inhibition) at 200 ppm [2, 13]

C=Cc1cnc(-c2nc3cc(C(F)(F)F)ncc3n2C)c(S(=O)(=O)CC)c1 [P3, 2-(3-ethylsulfonyl-5-vinyl-2-pyridyl)-3-methyl-6-(trifluoromethyl)imidazo[4,5-c]pyridine]
≥ 80%: mortality at 24 ppm [3] | percent effect (mortality or growth inhibition) at 200 ppm [4] | percent control (mortality, anti-feedant effect or growth inhibition) at 200 ppm [1, 12] | percent effect (mortality or growth inhibition) at 200 ppm [2, 13] | mortality at 200 ppm [5]

CCS(=O)(=O)c1cc(C#Cc2ccc(Cl)cc2)cnc1-c1nc2cc(C(F)(F)F)ncc2n1C [P4]
≥ 80%: percent effect (mortality or growth inhibition) at 200 ppm [4] | percent control (mortality, anti-feedant effect or growth inhibition) at 200 ppm [1, 12] | percent effect (mortality or growth inhibition) at 200 ppm [2, 13] | mortality at 200 ppm [5]

CCS(=O)(=O)c1cc(/C=C/C2CCCCC2)cnc1-c1nc2cc(C(F)(F)F)ncc2n1C [P5]
≥ 80%: percent effect (mortality or growth inhibition) at 200 ppm [4] | mortality at 200 ppm [6] | percent effect (mortality or growth inhibition) at 200 ppm [2, 13]

C/C=C/c1cnc(-c2nc3cc(C(F)(F)F)ncc3n2C)c(S(=O)(=O)CC)c1 [P6]
≥ 80%: percent effect (mortality or growth inhibition) at 200 ppm [4] | percent control (mortality, anti-feedant effect or growth inhibition) at 200 ppm [1, 12] | mortality at 200 ppm [7] | percent control (mortality, anti-feedancy or growth inhibition) at 12.5 ppm [8] | percent effect (mortality or growth inhibition) at 200 ppm [2, 13] | mortality at 200 ppm [5]

CCS(=O)(=O)c1cc(C2CC2)cnc1-c1nc2cc(C(F)(F)F)ncc2n1C [P7, 2-(5-cyclopropyl-3-ethylsulfonyl-2-pyridyl)-3-methyl-6-(trifluoromethyl)imidazo[4,5-c]pyridine]
≥ 80%: mortality at 24 ppm [3] | percent effect (mortality or growth inhibition) at 200 ppm [4] | percent control (mortality, anti-feedant effect or growth inhibition) at 200 ppm [1, 12] | mortality at 200 ppm [7] | percent control (mortality, anti-feedancy or growth inhibition) at 12.5 ppm [8] | percent effect (mortality or growth inhibition) at 200 ppm [2, 13] | mortality at 200 ppm [5]

CCS(=O)(=O)c1cc(C#Cc2ccc(Cl)cc2)ccc1-c1nc2cc(C(F)(F)F)ncc2n1C [P8]
≥ 80%: percent effect (mortality or growth inhibition) at 200 ppm [4] | percent control (mortality, anti-feedant effect or growth inhibition) at 200 ppm [1, 12] | mortality at 200 ppm [7] | percent control (mortality, anti-feedancy or growth inhibition) at 12.5 ppm [8] | mortality at 200 ppm [6] | percent effect (mortality or growth inhibition) at 200 ppm [2, 13]

CCS(=O)(=O)c1cc(C#CC(F)(F)F)ccc1-c1nc2cc(C(F)(F)F)ncc2n1C [P9]
≥ 80%: percent effect (mortality or growth inhibition) at 200 ppm [4] | mortality at 200 ppm [9]

CCS(=O)(=O)c1cc(/C=C/c2ccc(C(F)(F)F)cc2)ccc1-c1nc2cc(C(F)(F)F)ncc2n1C [P10]
≥ 80%: percent effect (mortality or growth inhibition) at 200 ppm [4] | percent control (mortality, anti-feedant effect or growth inhibition) at 200 ppm [1, 12] | mortality at 200 ppm [7] | percent effect (mortality or growth inhibition) at 200 ppm [2, 13]

CCS(=O)(=O)c1cc(C=C(C)C)cnc1-c1nc2cc(C(F)(F)F)ncc2n1C [P11]
≥ 80%: percent effect (mortality or growth inhibition) at 200 ppm [4] | percent control (mortality, anti-feedant effect or growth inhibition) at 200 ppm [1, 12] | mortality at 200 ppm [7] | percent effect (mortality or growth inhibition) at 200 ppm [2, 13] | mortality at 200 ppm [5]

CCS(=O)(=O)c1cc(C2=CCC(C)(C)CC2)cnc1-c1nc2cc(C(F)(F)F)ncc2n1C [P12]
≥ 80%: mortality at 200 ppm [7] | mortality at 200 ppm [6] | percent effect (mortality or growth inhibition) at 200 ppm [2, 13] | mortality at 200 ppm [5]

C=Cc1ccc(-c2nc3cc(C(F)(F)F)ncc3n2C)c(S(=O)(=O)CC)c1 [P13]
≥ 80%: percent effect (mortality or growth inhibition) at 200 ppm [4] | percent control (mortality, anti-feedant effect or growth inhibition) at 200 ppm [1, 12] | percent control (mortality, anti-feedancy or growth inhibition) at 12.5 ppm [8] | percent effect (mortality or growth inhibition) at 200 ppm [2, 13]

C=C(c1ccc(-c2nc3cc(C(F)(F)F)ncc3n2C)c(S(=O)(=O)CC)c1)C(F)(F)F [P14]
≥ 80%: percent effect (mortality or growth inhibition) at 200 ppm [4] | percent control (mortality, anti-feedant effect or growth inhibition) at 200 ppm [1, 12] | percent effect (mortality or growth inhibition) at 200 ppm [2, 13]

CCS(=O)(=O)c1cc(C2(C#N)CC2)ccc1-c1nc2cc(C(F)(F)F)ncc2n1C [P15, 1-[3-ethylsulfonyl-4-[3-methyl-6-(trifluoromethyl)imidazo[4,5-c]pyridin-2-yl]phenyl]cyclopropanecarbonitrile]
≥ 80%: mortality at 200 ppm [10] | mortality at 24 ppm [3] | percent effect (mortality or growth inhibition) at 200 ppm [4] | percent control (mortality, anti-feedant effect or growth inhibition) at 200 ppm [1, 12] | mortality at 200 ppm [7] | percent control (mortality, anti-feedancy or growth inhibition) at 12.5 ppm [8] | mortality at 200 ppm [6] | mortality at 200 ppm [9] | percent effect (mortality or growth inhibition) at 200 ppm [2, 13] | mortality at 200 ppm [5]

CCS(=O)(=O)c1cc(C2(C#N)CC2)cnc1-c1nc2cc(C(F)(F)F)ncc2n1C [P16]
≥ 80%: mortality at 200 ppm [10] | mortality at 24 ppm [3] | percent effect (mortality or growth inhibition) at 200 ppm [4] | percent control (mortality, anti-feedant effect or growth inhibition) at 200 ppm [1, 12] | mortality at 200 ppm [7] | percent control (mortality, anti-feedancy or growth inhibition) at 12.5 ppm [8] | mortality at 200 ppm [6] | mortality at 200 ppm [11] | percent effect (mortality or growth inhibition) at 200 ppm [2, 13] | mortality at 200 ppm [5]

C=C(c1cnc(-c2nc3cc(C(F)(F)F)ncc3n2C)c(S(=O)(=O)CC)c1)C(F)(F)F [P17, 2-[3-ethylsulfonyl-5-[1-(trifluoromethyl)vinyl]-2-pyridyl]-3-methyl-6-(trifluoromethyl)imidazo[4,5-c]pyridine]
≥ 80%: percent effect (mortality or growth inhibition) at 200 ppm [4]
